# Experimental data as given in US6372779B1, “Anti-inflammatory compounds” (Ortho Pharmaceutical Corporation, priority 1997, dated 2002).
# What was measured:
# [1] = tested on: oxazolone-induced ear swelling in CD-1 mice; assay: mouse oxazolone-induced contact hypersensitization (MOCH), ear swelling; format: in vivo; settings: topical to ear, 1 mg, mouse, 24 hours after oxazolone challenge; read-out: Oxazolone Ear Swelling (MOCH) % inhibition vs. Vehicle at 1 mg
# Protocol: Several triphenylpropanamide compounds of this invention, having varying affinities for the human glucocorticoid receptor, were tested for topical antiinflammatory activity in mouse ear inflammation models. […] Compounds having receptor affinities closer to hydrocortisone were as nearly active as hydrocortisone in suppressing mouse oxazolone-induced contact hypersensitization (MOCH) and phorbol ester-induced ear edema. The in vivo studies of this example were conducted as follows.
# In determining the MOCH using the compounds of this invention, albino male CD-1 mice, 7-9 weeks old were induced on the shaved abdomen with 50 μl of 3% oxazolone in acetone/corn oil (Day 0). On Day 5, a 20 μl volume of 2% oxazolone in acetone was applied to the dorsal left ear of the mouse. Compounds (made in ethanol/propylene glycol, 70:30) were applied to the left ear in 20 μl volume, one hour after oxazolone challenge. The right ear was not treated. The mice were sacrificed by carbon dioxide inhalation 24 hours after oxazolone challenge, the left and right ears were removed and a 7 mm biopsy was removed from each ear and weighed. The difference in biopsy weights between the right and left ears was calculated. Antiinflammatory effects of compounds were evident as an inhibition of the increase in ear weight.
compound,measurement,setting,value
O=C(NCC(c1ccccc1)C(c1ccccc1)c1ccccc1)Oc1ccccc1 (stereo not drawn) [Compound 56],inhibition in vivo at 1 mg,[1],38%
same,melting point,,128 to 129 °C
O=C(NCC(c1ccccc1)C(c1ccccc1)c1ccccc1)Oc1ccc(F)cc1 (stereo not drawn) [Compound 58],inhibition in vivo at 1 mg,[1],16%
same,melting point,,150 to 151 °C
CCCC(=O)NCC(c1ccccc1)C(c1ccccc1)c1ccccc1 (stereo not drawn) [Compound 60],inhibition in vivo at 1 mg,[1],27%
same,melting point,,88 to 89 °C
CC(C)C(=O)NCC(c1ccccc1)C(c1ccccc1)c1ccccc1 (stereo not drawn) [Compound 61],inhibition in vivo at 1 mg,[1],17%
same,melting point,,114 to 115 °C
CCCCC(=O)NCC(c1ccccc1)C(c1ccccc1)c1ccccc1 (stereo not drawn) [Compound 62],inhibition in vivo at 1 mg,[1],36%
same,melting point,,78 to 79 °C
CC(C)CC(=O)NCC(c1ccccc1)C(c1ccccc1)c1ccccc1 (stereo not drawn) [Compound 63],inhibition in vivo at 1 mg,[1],3%
same,melting point,,112 to 113 °C
CC(C)(C)C(=O)NCC(c1ccccc1)C(c1ccccc1)c1ccccc1 (stereo not drawn) [Compound 64],inhibition in vivo at 1 mg,[1],26%
same,melting point,,143 to 144 °C
CCOC(=O)CC(=O)NCC(c1ccccc1)C(c1ccccc1)c1ccccc1 (stereo not drawn) [Compound 65],inhibition in vivo at 1 mg,[1],13%
same,melting point,,103 to 105.5 °C
O=C(Cc1ccccc1)NCC(c1ccccc1)C1c2ccccc2-c2ccccc21 (stereo not drawn) [Compound 66],inhibition in vivo at 1 mg,[1],20%
same,melting point,,148.7 to 150.8 °C
COc1ccccc1CCC(=O)NCC(c1ccccc1)C1c2ccccc2CCc2ccccc21 (stereo not drawn) [Compound 74],inhibition in vivo at 1 mg,[1],18%
same,melting point,,134.3 to 136.8 °C
O=C(Cc1cccs1)NCC(c1ccccc1)C1c2ccccc2CCc2ccccc21 (stereo not drawn) [Compound 75],inhibition in vivo at 1 mg,[1],26%
same,melting point,,175 to 177.5 °C
O=C(Cc1ccsc1)NCC(c1ccccc1)C1c2ccccc2CCc2ccccc21 (stereo not drawn) [Compound 76],inhibition in vivo at 1 mg,[1],23%
same,melting point,,167.3 to 169.3 °C
Cc1ccc(C(=O)NCC(c2ccccc2)C2c3ccccc3CCc3ccccc32)s1 (stereo not drawn) [Compound 77],inhibition in vivo at 1 mg,[1],41%
same,melting point,,172.1 to 173 °C
COc1ccc(CC(=O)NCC2(c3ccccc3)CC2(c2ccccc2)c2ccccc2)cc1OC (stereo not drawn) [Compound 79],inhibition in vivo at 1 mg,[1],18%
same,melting point,,131 to 133.5 °C
"O=C(Cc1ccccc1Cl)NCC1(c2ccccc2)CC1(c1ccccc1)c1ccccc1 (stereo not drawn) [Compound 80, N-(2chlorophenyl)acetyl-1,2,2-triphenylcyclopropylmethylamine]",inhibition in vivo at 1 mg,[1],54%
same,melting point,,128.5 to 130.5 °C
COc1ccccc1CCC(=O)NCC1(c2ccccc2)CC1(c1ccccc1)c1ccccc1 (stereo not drawn) [Compound 81],inhibition in vivo at 1 mg,[1],22%
same,melting point,,187.5 to 189 °C
O=C(NCC1(c2ccccc2)CC1(c1ccccc1)c1ccccc1)C(c1ccccc1)c1ccccc1 (stereo not drawn) [Compound 82],inhibition in vivo at 1 mg,[1],23%
same,melting point,,166 to 169 °C
CCCC(=O)NCC1(c2ccccc2)CC1(c1ccccc1)c1ccccc1 (stereo not drawn) [Compound 83],inhibition in vivo at 1 mg,[1],-4%
same,melting point,,149 to 150 °C
CC(C)C(=O)NCC1(c2ccccc2)CC1(c1ccccc1)c1ccccc1 (stereo not drawn) [Compound 84],inhibition in vivo at 1 mg,[1],54%
same,melting point,,167 to 168 °C
CCCCC(=O)NCC1(c2ccccc2)CC1(c1ccccc1)c1ccccc1 (stereo not drawn) [Compound 87],inhibition in vivo at 1 mg,[1],22%
same,melting point,,122 to 123 °C
O=C(Cc1cccs1)NCC1(c2ccccc2)CC1(c1ccccc1)c1ccccc1 (stereo not drawn) [Compound 88],inhibition in vivo at 1 mg,[1],29%
same,melting point,,135 to 137 °C
O=C(Cc1ccsc1)NCC1(c2ccccc2)CC1(c1ccccc1)c1ccccc1 (stereo not drawn) [Compound 89],inhibition in vivo at 1 mg,[1],16%
same,melting point,,130 to 135 °C
O=C(NCC1(c2ccccc2)CC1(c1ccccc1)c1ccccc1)c1cccs1 (stereo not drawn) [Compound 90],inhibition in vivo at 1 mg,[1],65%
same,melting point,,152.5 to 155 °C
Cc1ccc(C(=O)NCC2(c3ccccc3)CC2(c2ccccc2)c2ccccc2)s1 (stereo not drawn) [Compound 91],inhibition in vivo at 1 mg,[1],13%
same,melting point,,168 to 170.5 °C
O=C(NCC1(c2ccccc2)CC1(c1ccccc1)c1ccccc1)Nc1ccccc1 (stereo not drawn) [Compound 92],inhibition in vivo at 1 mg,[1],42%
same,melting point,,209 to 210 °C
O=C(NCC1(c2ccccc2)CC1(c1ccccc1)c1ccccc1)Oc1ccccc1 (stereo not drawn) [Compound 96],inhibition in vivo at 1 mg,[1],52%
same,melting point,,146 to 147 °C
O=C(NCC1(c2ccccc2)CC1(c1ccccc1)c1ccccc1)Oc1ccc(Cl)cc1 (stereo not drawn) [Compound 97],inhibition in vivo at 1 mg,[1],50%
same,melting point,,171 to 172 °C
